Test results published in patent US20250188110A1, “SPECIFIC SMALL MOLECULE INHIBITORS THAT BLOCK KMT9 METHYLTRANSFERASE ACTIVITY AND FUNCTION” (ALBERT-LUDWIGS-UNIVERSITÄT FREIBURG, priority 2021, published 2025).
Where two headings read alike, the source gives them in different places.

How the values were obtained:
KMT9 [1] = target: T1, KMT9 (Homo sapiens, UniProt Q9Y5N5); assay: KMT9 thermal shift assay (SyproOrange); type: binding
T1 sequence (Q9Y5N5 1-214): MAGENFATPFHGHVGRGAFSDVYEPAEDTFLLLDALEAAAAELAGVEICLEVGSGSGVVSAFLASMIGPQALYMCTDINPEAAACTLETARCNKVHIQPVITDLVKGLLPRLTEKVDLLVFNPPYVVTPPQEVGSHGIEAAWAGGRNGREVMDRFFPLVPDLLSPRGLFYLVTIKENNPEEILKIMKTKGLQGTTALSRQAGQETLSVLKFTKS
T1 sequence (Q9UI30 1-120 isoform Q9UI30-2 partner): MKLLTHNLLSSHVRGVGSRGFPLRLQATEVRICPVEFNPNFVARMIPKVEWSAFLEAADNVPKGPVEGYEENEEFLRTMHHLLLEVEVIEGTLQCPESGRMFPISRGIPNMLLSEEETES
In short: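 ΔTm versus DMSO-only control is reported in bins (>20 K, 15–20 K, 10–15 K, ≤10 K), using Tm from Boltzmann sigmoidal fits of SyproOrange melt curves. KMT9 with compound in pH 8.5 BTP buffer containing MgCl2 and DTT was preincubated at 25° C, then ramped 1° C per 15 s up to 95° C.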

KMT9 [2] = target: T1, KMT9; assay: KMT9 methyltransferase inhibition assay, MTaseGlo luminescence (from entry 155); type: biochemical; settings: 100 nM KMT9, 5 μM ETF1, 1 μM SAM
Procedure: For the compounds from entry 155 on in Table 1, the following procedure was used to determine IC50 values: The assay was carried out in white, opaque 384-well OptiPlates (PerkinElmer). For IC50 determination, a 2.5x substrate mix (final assay concentrations: 5 μM ETF1, 1 μM SAM and 1x MTaseGlo Reagent), a 2.5x KMT9 solution (final assay concentration 100 nM) and a 5x inhibitor stock 1:1 dilution series (concentration according to the desired range; dilution series was prepared in assay buffer containing 10% DMSO to obtain a final DMSO concentration of 2% in the assay) were prepared. 2 μL of 5x inhibitor stock and 4 μL of 2.5x KMT9 were pipetted, the plate was spun down at 700 rpm for 1 min using a Hettich UNIVERSAL 320 centrifuge and incubated at room temperature (around 25° C.) for 15 min. The reaction was initiated by adding 4 μL of 2.5x substrate mix, the plate was spun down as described before and incubated at 30° C. for 2 h. Afterwards, 10 μL of 2× MTaseGlo Detection solution was added, the plate was centrifuged as described above and incubated for 60 min at room temperature. Luminescence was measured using a PerkinElmer EnVision 2102 Multilabel Reader. Calculation of inhibition and data fitting was carried out as for entries 1-154. described above.
For the results of the methyltransferase inhibition assay shown as “Inhibition” in Table 1, “I” represents an IC50 less than 0.1 μM, “II” represents an IC50 equal or higher than 0.1 μM and less than 1 μM, “III” represents an IC50 equal or higher than 1 µM and less than 10 µM and “IV” represents an IC50 equal or higher than 10 µM

KMT9 [3] = target: T1, KMT9; assay: Microscale thermophoresis (MST) KMT9 binding
In short: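 Kd from microscale thermophoresis: compound series against 20 nM His-KMT9 labelled via RED-Tris-NTA, buffer 25 mM HEPES (pH 7.5)/100 mM NaCl/1 mM DTT/0.05% Tween, 40% MST power, 100% LED. Reported as classes: A ≤10 nM, B >10–100 nM, C >100–1000 nM, D >1000 nM.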

[4] = 500 µM compound, 2 μM KMT9, read-out: Thermal shift (ΔTm)
[5] = MTaseGlo procedure (entries from 155), read-out: Inhibition (IC50)
[6] = His-tag labelled KMT9 20 nM, read-out: MST (Kd)
[7] = ΔTm, 500 µM compound, 2 μM KMT9, 5X SO, read-out: Thermal shift
[8] = from entry 155: MTaseGlo assay, read-out: Inhibition
[9] = microscale thermophoresis, His-tag labelled KMT9 (20 nM), read-out: MST
[10] = ΔTm class, 500 uM compound, 2 μM KMT9, read-out: Thermal shift
[11] = IC50 class, MTaseGlo procedure (entries from 155 on), read-out: Inhibition
[12] = His-tag labelled KMT9 20 nM, Kd class, read-out: MST

SMILES | ΔTm at 500 µM (KMT9 [1]; [7]) [°C] | IC50 (KMT9 [2]; [8]) [nM] | Kd (KMT9 [3]; [9]) [nM] | further results
Nc1nc(Cl)nc2c1c(Br)cn2[C@@H]1CC(CNCCCNCCc2ccc(F)cc2)[C@@H](O)[C@H]1O (mixture of isomers) [Compound 547, (1R,2S,3R)-3-(4-amino-5-bromo-2-chloro-7H-pyrrolo[2,3-d]pyrimidin-7-yl)-5-(((3-((4-fluorophenethyl)amino)propyl)amino)methyl)cyclopentane-1,2-diol] | – | – | – | ΔTm at 500 µM (KMT9 [1]; [4]): > 20 °C; IC50 (KMT9 [2]; [5]): 100 to 1000 nM; Kd (KMT9 [3]; [6]): ≤ 10 nM
O[C@@H]1[C@H](O)C(CNCCCNCCc2ccc(F)cc2)C[C@H]1n1cc(-c2cccs2)c2cnc(Cl)nc21 (mixture of isomers) [Compound 581, (1R,2S,3R)-3-(2-chloro-5-(thiophen-2-yl)-7H pyrrolo[2,3-d]pyrimidin-7-yl)-5-(((3-((4-fluorophenethyl)amino)propyl)amino)methyl)cyclopentane-1,2-diol] | – | – | – | ΔTm at 500 µM (KMT9 [1]; [4]): 10 to 15 °C; IC50 (KMT9 [2]; [5]): 1000 to 10000 nM; Kd (KMT9 [3]; [6]): ≤ 10 nM
Nc1nc(Cl)nc2c1c(-c1nccs1)cn2[C@@H]1CC(CN(CCCNCCc2ccc(F)cc2)c2cn[nH]c2)[C@@H](O)[C@H]1O (single isomer, unassigned) [Compound 543] | – | – | – | ΔTm at 500 µM (KMT9 [1]; [4]): > 20 °C; IC50 (KMT9 [2]; [5]): 100 to 1000 nM; Kd (KMT9 [3]; [6]): ≤ 10 nM
CCc1cn([C@@H]2C[C@H](CNCCCNCCc3ccc(C(F)(F)F)cc3)[C@@H](O)[C@H]2O)c2ncnc(N)c12 [Compound 379, (1R,2S,3R,5R)-3-(4-amino-5-ethyl-7H-pyrrolo[2,3-d]pyrimidin-7-yl)-5-(((3-((4-(trifluoromethyl)phenethyl)amino)propyl)amino)methyl) cyclopentane-1,2-diol] | 10 to 15 | 1000 to 10000 | 100 to 1000 | –
CCc1cn([C@@H]2C[C@H](CNCCCNCCc3ccc(F)cc3)[C@@H](O)[C@H]2O)c2ncnc(N)c12 [Compound 381, (1R,2S,3R,5R)-3-(4-amino-5-ethyl-7H-pyrrolo[2,3-d]pyrimidin-7-yl)-5-(((3-((4-fluorophenethyl)amino)propyl)amino)methyl) cyclopentane-1,2-diol] | 10 to 15 | 1000 to 10000 | 100 to 1000 | –
CCc1cn([C@@H]2C[C@H](CNCCCNCCc3ccc(F)cc3F)[C@@H](O)[C@H]2O)c2ncnc(N)c12 [Compound 383, (1R,2S,3R,5R)-3-(4-amino-5-ethyl-7H-pyrrolo[2,3-d]pyrimidin-7-yl)-5-(((3-((2,4-difluorophenethyl)amino)propyl)amino)methyl) cyclopentane-1,2-diol] | 10 to 15 | 1000 to 10000 | 10 to 100 | –
Nc1ncnc2c1ccn2[C@@H]1C[C@H](c2cc(Cl)cc(Cl)c2)[C@@H](O)[C@H]1O [Compound 384, (1R,2S,3R,5R)-3-(4-amino-7H-pyrrolo[2,3-a]pyrimidin-7-yl)-5-(3,5-dichlorophenyl) cyclopentane-1,2-diol] | ≤ 10 | > 10000 | > 1000 | –
Nc1ncnc2c1ccn2[C@@H]1C[C@H](c2ccccc2)[C@@H](O)[C@H]1O [Compound 385, (1R,2S,3R,5R)-3-(4-amino-7H-pyrrolo[2,3-d]pyrimidin-7-yl)-5-phenylcyclopentane-1,2-diol] | ≤ 10 | > 10000 | > 1000 | –
Nc1ncnc2c1c(Br)cn2[C@@H]1C[C@H](c2ccccc2)[C@@H](O)[C@H]1O [Compound 386, (1R,2S,3R,5R)-3-(4-amino-5-bromo-7H-pyrrolo[2,3-a]pyrimidin-7-yl)-5-phenylcyclopentane-1,2-diol] | – | – | – | ΔTm at 500 µM (KMT9 [1]; [10]): ≤ 10 °C; IC50 (KMT9 [2]; [11]): > 10000 nM; Kd (KMT9 [3]; [12]): > 1000 nM
Nc1ncnc2c1ccn2[C@@H]1C[C@H](c2ccc3ccccc3c2)[C@@H](O)[C@H]1O [Compound 387, (1R,2S,3R,5R)-3-(4-amino-7H-pyrrolo[2,3-d]pyrimidin-7-yl)-5-(naphthalen-2-yl) cyclopentane-1,2-diol] | ≤ 10 | > 10000 | > 1000 | –
Nc1ncnc2c1ccn2[C@@H]1C[C@H](c2ccncc2)[C@@H](O)[C@H]1O [Compound 389, (1R,2S,3R,5R)-3-(4-amino-7H-pyrrolo[2,3-d]pyrimidin-7-yl)-5-(pyridin-4-yl) cyclopentane-1,2-diol] | ≤ 10 | > 10000 | > 1000 | –
Nc1ncnc2c1ccn2[C@@H]1C[C@H](c2cccs2)[C@@H](O)[C@H]1O [Compound 390, (1R,2S,3R,5S)-3-(4-amino-7H-pyrrolo[2,3-a]pyrimidin-7-yl)-5-(thiophen-2-yl) cyclopentane-1,2-diol] | ≤ 10 | > 10000 | > 1000 | –
Nc1ncnc2c1ccn2[C@@H]1C[C@H](c2ccn[nH]2)[C@@H](O)[C@H]1O [Compound 391, (1R,2S,3R,5R)-3-(4-amino-7H-pyrrolo[2,3-d]pyrimidin-7-yl)-5-(1H-pyrazol-5-yl) cyclopentane-1,2-diol] | – | – | – | ΔTm at 500 µM (KMT9 [1]; [10]): ≤ 10 °C; IC50 (KMT9 [2]; [11]): > 10000 nM; Kd (KMT9 [3]; [12]): > 1000 nM
NCc1cccc([C@H]2C[C@@H](n3cc(Br)c4c(N)nc(Cl)nc43)[C@H](O)[C@@H]2O)c1 [Compound 393, (1R,2S,3R,5R)-3-(4-amino-5-bromo-2-chloro-7H-pyrrolo[2,3-d]pyrimidin-7-yl)-5-(3-(aminomethyl)phen-yl) cyclopentane-1,2-diol] | – | – | – | ΔTm at 500 µM (KMT9 [1]; [4]): 15 to 20 °C; IC50 (KMT9 [2]; [5]): 100 to 1000 nM; Kd (KMT9 [3]; [6]): ≤ 10 nM
CCc1cn([C@@H]2C[C@H](c3ccccc3)[C@@H](O)[C@H]2O)c2ncnc(N)c12 [Compound 396, (1R,2S,3R,5R)-3-(4-amino-5-ethyl-7H-pyrrolo[2,3-d]pyrimidin-7-yl)-5-phenylcyclopentane-1,2-diol] | – | – | – | ΔTm at 500 µM (KMT9 [1]; [10]): ≤ 10 °C; IC50 (KMT9 [2]; [11]): > 10000 nM; Kd (KMT9 [3]; [12]): > 1000 nM
O[C@@H]1[C@H](O)[C@@H](C2CCCN(CC3CC3)C2)C[C@H]1n1cc(-c2nc(Cc3ccccc3)cs2)c2cnc(Cl)nc21 (stereo partly drawn) [Compound 516, (1R,2S,3R,5R)-3-(5-(4-benzylthiazol-2-yl)-2-chloro-7H-pyrrolo[2,3-d]pyrimidin-7-yl)-5-(1-(cyclopropylmethyl)piperidin-3-yl)cyclopentane-1,2-diol] | – | – | – | IC50 (KMT9 [2]; [11]): 1000 to 10000 nM; Kd (KMT9 [3]; [12]): 100 to 1000 nM

Continued, in another order:

ΔTm at 500 µM (KMT9 [1]; [7]) [°C] | IC50 (KMT9 [2]; [8]) [nM] | Kd (KMT9 [3]; [9]) [nM] | SMILES | further results
15 to 20 | 1000 to 10000 | 100 to 1000 | Nc1ncnc2c1c(-c1nc(Cc3ccccc3)cs1)cn2[C@@H]1C[C@H]([C@@H]2CCCNC2)[C@@H](O)[C@H]1O (single isomer, unassigned) [Compound 593R] | –
10 to 15 | 1000 to 10000 | 100 to 1000 | Nc1ncnc2c1c(-c1nc(Cc3ccccc3)cs1)cn2[C@@H]1C[C@H]([C@H]2CCCNC2)[C@@H](O)[C@H]1O (single isomer, unassigned) [Compound 593S] | –
≤ 10 | > 10000 | > 1000 | Nc1ncnc2c1c(-c1nccs1)cn2[C@@H]1C[C@H](c2cc(Cl)cc(Cl)c2)[C@@H](O)[C@H]1O [Compound 394, (1R,2S,3R,5R)-3-(4-amino-5-(thiazol-2-yl)-7H-pyrrolo[2,3-d]pyrimidin-7-yl)-5-(3,5-dichlorophenyl) cyclo-pentane-1,2-diol] | –
≤ 10 | > 10000 | > 1000 | Nc1ncnc2c1c(-c1nccs1)cn2[C@@H]1C[C@H](c2ccccc2)[C@@H](O)[C@H]1O [Compound 395, (1R,2S,3R,5R)-3-(4-amino-5-(thiazol-2-yl)-7H-pyrrolo[2,3-d]pyrimidin-7-yl)-5-phenylcyclopentane-1,2-diol] | –
